Results reported in patent publication US9695155B2, “Herbicidal substituted pyrimidinyloxy benzene compounds” (E. I. DU PONT DE NEMOURS AND COMPANY, priority 2013, dated 2017).

What was measured:
[1] = system: Heteranthera limosa; test: Test B flooded paddy test; format: in vivo; settings: Heteranthera limosa, Flood, 250 g ai/ha; 0 to 100 scale where 0 is no effect and 100 is complete control; read-out: Plant response rating, Ducksalad
How it was run: (§1)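 Greenhouse flooded-pot test: compounds dosed into 3 cm standing water over 2-leaf plants, flood held constant. Rated visually after 13–15 days on 0–100 (complete control = 100); a dash marks no test result.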

[2] = system: blackgrass; test: Test C postemergence; format: in vivo, Alopecurus myosuroides; settings: Alopecurus myosuroides, post-emergence
How it was run: (§2)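 Sown in loam/sand → sprayed pre-emergence; or grown to 1–4 leaves in peat mix → sprayed post-emergence. Same solvent/surfactant formulation both ways. Greenhouse 13–15 d. Score 0–100 visual.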

[3] = system: corn; test: Test A preemergence; format: in vivo, Zea mays; settings: Zea mays, pre-emergence, 240 h, 0 to 100 scale where 0 is no effect and 100 is complete control
How it was run: (§3)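 Compounds in non-phytotoxic solvent with surfactant applied as soil spray preemergence, or postemergence to plants 2-10 cm at one- to two-leaf stage, in loam/sand. After approximately 10 days in greenhouse, injury rated visually versus untreated controls, 0 (no effect) to 100 (complete control).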

[4] = system: barnyardgrass; test: Test C postemergence; format: in vivo, Echinochloa crus-galli; settings: Echinochloa crus-galli, post-emergence
How it was run: as §2

[5] = system: lambsquarters; test: Test C postemergence; format: in vivo, Chenopodium album
How it was run: as §2

[6] = system: soybean; test: Test C postemergence; format: in vivo, Glycine max
How it was run: as §2

[7] = system: kochia; test: Test C postemergence; format: in vivo, Kochia scoparia; settings: Bassia scoparia, post-emergence
How it was run: as §2

[8] = system: rice; test: Test B flooded paddy test; format: in vivo, Oryza sativa; settings: Oryza sativa; Flood, 250 g ai/ha; 0 to 100 scale where 0 is no effect and 100 is complete control; read-out: Plant response rating, Rice
How it was run: as §1

[9] = system: pigweed; test: Test C postemergence; format: in vivo, Amaranthus retroflexus
How it was run: as §2

[10] = system: Italian ryegrass; test: Test C postemergence; format: in vivo, Lolium multiflorum
How it was run: as §2

[11] = system: morningglory; test: Test A postemergence; format: in vivo, Ipomoea spp.; settings: 0 to 100 scale where 0 is no effect and 100 is complete control
How it was run: as §3

[12] = 31 g ai/ha, postemergence, visual rating, scale 0 to 100 (0 no effect, 100 complete control), 13 to 15 days

Fc1cccc(Oc2ncc(Cl)cn2)c1-n1cc(Br)cn1 [Compound 178, 2-[2-(4-bromo-1H-pyrazol-1-yl)-3-fluorophenoxy]-5-chloropyrimidine]
pest or weed control at 250 g/ha [1]: 0%
pest or weed control at 16 g/ha ([2]; 16 g ai/ha, postemergence, 0 is no effect, 100 is complete control, read-out: Plant response rating (0 to 100), Blackgrass): 0%
pest or weed control at 31 g/ha ([2]; 31 g ai/ha, postemergence, visual rating, scale 0 to 100 (0 no effect, 100 complete control), 13 to 15 days, read-out: Blackgrass plant response rating): 5%
pest or weed control at 125 g/ha ([2]; 125 g ai/ha, postemergence, visual rating, scale 0 to 100 (0 no effect, 100 complete control), read-out: Plant response rating, Blackgrass): 60%
pest or weed control at 62 g/ha ([2]; Postemergence, 62 g ai/ha, scale 0 to 100 (0 no effect, 100 complete control), read-out: Plant response rating, Blackgrass): 20%
Corn plant response rating (crop injury, 0 = no effect, 100 = complete kill) at 125 g/ha ([3]; 125 g ai/ha): 0%
plant injury at 500 g/ha ([3]; 500 g ai/ha, read-out: Corn plant response rating): 30%
pest or weed control at 16 g/ha ([4]; 16 g ai/ha, postemergence, 0 is no effect, 100 is complete control, read-out: Plant response rating (0 to 100), Barnyardgrass): 5%
pest or weed control at 31 g/ha ([4]; 31 g ai/ha, postemergence, visual rating, scale 0 to 100 (0 no effect, 100 complete control), 13 to 15 days, read-out: Barnyardgrass plant response rating): 5%
pest or weed control at 125 g/ha ([4]; 125 g ai/ha, postemergence, visual rating, scale 0 to 100 (0 no effect, 100 complete control), read-out: Plant response rating, Barnyardgrass): 10%
pest or weed control at 62 g/ha ([4]; Postemergence, 62 g ai/ha, scale 0 to 100 (0 no effect, 100 complete control), read-out: Plant response rating, Barnyardgrass): 5%
Lambsquarters plant response rating [5, 12]: 80
pest or weed control at 16 g/ha ([5]; Chenopodium album, post-emergence, 16 g ai/ha, postemergence, 0 is no effect, 100 is complete control, read-out: Plant response rating (0 to 100), Lambsquarters): 70%
pest or weed control at 125 g/ha ([5]; Chenopodium album, post-emergence, 125 g ai/ha, postemergence, visual rating, scale 0 to 100 (0 no effect, 100 complete control), read-out: Plant response rating, Lambsquarters): 98%
pest or weed control at 62 g/ha ([5]; Chenopodium album, post-emergence, Postemergence, 62 g ai/ha, scale 0 to 100 (0 no effect, 100 complete control), read-out: Plant response rating, Lambsquarters): 85%
Soybean plant response rating [6, 12]: 70
Soybean plant response rating (crop injury, 0-100 scale) at 16 g/ha ([6]; Glycine max, post-emergence, 16 g ai/ha, postemergence, 0 is no effect, 100 is complete control): 50%
Soybean plant response rating (crop injury, 0-100 scale) at 125 g/ha ([6]; Glycine max, post-emergence, 125 g ai/ha, postemergence, visual rating, scale 0 to 100 (0 no effect, 100 complete control), read-out: Plant response rating, Soybean): 95%
Soybean plant response rating (crop injury, 0-100 scale) at 62 g/ha ([6]; Glycine max, post-emergence, Postemergence, 62 g ai/ha, scale 0 to 100 (0 no effect, 100 complete control)): 65%
pest or weed control at 16 g/ha ([7]; 16 g ai/ha, postemergence, 0 is no effect, 100 is complete control, read-out: Plant response rating (0 to 100), Kochia): 60%
pest or weed control at 31 g/ha ([7]; 31 g ai/ha, postemergence, visual rating, scale 0 to 100 (0 no effect, 100 complete control), 13 to 15 days, read-out: Kochia plant response rating): 90%
pest or weed control at 125 g/ha ([7]; 125 g ai/ha, postemergence, visual rating, scale 0 to 100 (0 no effect, 100 complete control), read-out: Plant response rating, Kochia): 95%
pest or weed control at 62 g/ha ([7]; Postemergence, 62 g ai/ha, scale 0 to 100 (0 no effect, 100 complete control), read-out: Plant response rating, Kochia): 95%
plant injury at 250 g/ha [8]: 0%
Pigweed plant response rating [9, 12]: 85
pest or weed control at 16 g/ha ([9]; Amaranthus retroflexus, post-emergence, 16 g ai/ha, postemergence, 0 is no effect, 100 is complete control, read-out: Plant response rating (0 to 100), Pigweed): 80%
pest or weed control at 125 g/ha ([9]; Amaranthus retroflexus, post-emergence, 125 g ai/ha, postemergence, visual rating, scale 0 to 100 (0 no effect, 100 complete control), read-out: Plant response rating, Pigweed): 98%
pest or weed control at 62 g/ha ([9]; Amaranthus retroflexus, post-emergence, Postemergence, 62 g ai/ha, scale 0 to 100 (0 no effect, 100 complete control), read-out: Plant response rating, Pigweed): 95%
Ryegrass, Italian plant response rating [10, 12]: 0
pest or weed control at 16 g/ha ([10]; Lolium multiflorum, post-emergence, 16 g ai/ha, postemergence, 0 is no effect, 100 is complete control, read-out: Plant response rating (0 to 100), Ryegrass, Italian): 0%
pest or weed control at 125 g/ha ([10]; Lolium multiflorum, post-emergence, 125 g ai/ha, postemergence, visual rating, scale 0 to 100 (0 no effect, 100 complete control), read-out: Plant response rating, Ryegrass, Italian): 20%
pest or weed control at 62 g/ha ([10]; Lolium multiflorum, post-emergence, Postemergence, 62 g ai/ha, scale 0 to 100 (0 no effect, 100 complete control), read-out: Plant response rating, Ryegrass, Italian): 0%
Morningglory plant response rating ([11]; 125 g ai/ha): 70
pest or weed control at 500 g/ha ([11]; Ipomoea, post-emergence, 240 h, 500 g ai/ha, read-out: Plant response rating, Morningglory): 100%
